In this test the test system is THP1-Dual™ cells (IRF-Lucia luciferase reporter). Put plainly: THP1-Dual™ cell reporter assay. Type of test: cell-based, human. Conditions: some values average of multiple experiments; for EC50, Lucia reporter signal: ADC: drug linker conjugated to targeted mAb, 48 h. On the procedure:
Potency of compounds and ADCs was evaluated using the THP1-Dual™ cells (Invivogen PN: thpd-nfis [also referred to as THP1 dual reporter cells]), which contain an IRF-Lucia luciferase reporter. Cells were cultured in RPMI-1640 (Gibco) with 10% heat-inactivated fetal bovine serum, Pen-Strep (100 U/mL-100 […], Gibco), HEPES (10 mM, Gibco)), sodium pyruvate (1 mM, Gibco), MEM non-essential amino acids (1×, Gibco), GlutaMAX (1×, Gibco), and beta-mercaptoethanol (55 μM, Gibco). Cells were plated in a 96-well flat bottom tissue culture-treated clear polystyrene plate (Corning Costar #3596) at ˜100,000 cells per well in 200 μL with the indicated concentration of the compound or ADC. The supernatant was harvested at 24 hours (compounds) or 48 hours (ADC) post plating for the reporter assay, or as indicated. To measure Lucia reporter signal, 10 µL of the supernatant was combined with 40 µL of QUANTI-Luc™ Luminescence assay reagent (Invivogen PN: rep-qlc1) in a 96-well clear flat bottom tissue culture-treated black polystyrene plate (Corning Costar #3603) and read on a Perkin Elmer Envision plate reader.

In brackets after ≈: the same amount, converted by molar mass.

In the case of `CCn1nc(C)cc1C(=O)Nc1nc2cc(C(=O)OC)cc(OC)c2n1C/C=C/Cn1c(NC(=O)c2cc(C)nn2CC)nc2cc(C(=O)OC)cc(OCCCN(C)C(=O)OCc3ccc(O[C@@H]4O[C@H](C(=O)O)[C@@H](O)[C@H](O)[C@H]4O)cc3NC(=O)CCNC(=O)CCN3C(=O)C=CC3=O)c21` [compound 67], the “EC50, Lucia reporter signal” value is >10,000 ng/mL.
Still for that read-out and setting: then `CCn1nc(C)cc1C(=O)Nc1nc2cc(C(=O)O)cc(OC)c2n1C/C=C/Cn1c(NC(=O)c2cc(C)nn2CC)nc2cc(C(=O)O)cc(OCCCN(C)C(=O)CCN3C(=O)C=CC3=O)c21` [compound 68, (E)-1-(4-(5-carboxy-2-(1-ethyl-3-methyl-1H-pyrazole-5-carboxamido)-7-methoxy-1H-benzo[d]imidazol-1-yl)but-2-en-1-yl)-7-(3-(3-(2,5-dioxo-2,5-dihydro-1H-pyrrol-1-yl)-N-methylpropanamido)propoxy)-2-(1-ethyl-3-methyl-1H-pyrazole-5-carboxamido)-1H-benzo[d]imidazole-5-carboxylic acid], with >10,000 ng/mL; and `CCn1cc(C(=O)Nc2nc3cc(C(N)=O)cc(OCCCN(C)C(=O)CCN4C(=O)C=CC4=O)c3n2C/C=C/Cn2c(NC(=O)c3cc(C)nn3CC)nc3cc(C(N)=O)cc(OC)c32)c(C)n1` [compound 102], with >10,000 ng/mL; and `CCn1nc(C)cc1C(=O)Nc1nc2cc(C(N)=O)cc(OC)c2n1C/C=C/Cn1c(NC(=O)c2cc(C)nn2CC)nc2cc(C(N)=O)cc(OCCCN(C)C(=O)[C@@H](NC(=O)CCN3C(=O)C=CC3=O)[C@@H](C)OC)c21` [compound 125], with 1.4 ng/mL (≈ 1.32 nM).
The same measure, in the same setting: then `CCc1oc(C)cc1C(=O)Nc1nc2cc(C(N)=O)cc(OCCCN(C)C(=O)CCN3C(=O)C=CC3=O)c2n1C/C=C/Cn1c(NC(=O)c2cc(C)nn2CC)nc2cc(C(N)=O)cc(OC)c21` [compound 106], with >10,000 ng/mL; and `CCn1nc(C)cc1C(=O)Nc1nc2cc(C(=O)O)cc(OC)c2n1C/C=C/Cn1c(NC(=O)c2cc(C)nn2CC)nc2cc(C(N)=O)cc(OCCCN(C)C(=O)CCN3C(=O)C=CC3=O)c21` [compound 126, (E)-1-(4-(5-carbamoyl-7-(3-(3-(2,5-dioxo-2,5-dihydro-1H-pyrrol-1-yl)-N-methylpropanamido)propoxy)-2-(1-ethyl-3-methyl-1H-pyrazole-5-carboxamido)-1H-benzo[d]imidazol-1-yl)but-2-en-1-yl)-2-(1-ethyl-3-methyl-1H-pyrazole-5-carboxamido)-7-methoxy-1H-benzo[d]imidazole-5-carboxylic acid], with >10,000 ng/mL.
On the same count and under the same terms, next, `CCn1nc(C)cc1C(=O)Nc1nc2cc(C(N)=O)cc(OC)c2n1C/C=C/Cn1c(NC(=O)c2ccnn2CC)nc2cc(C(N)=O)cc(OCCCN(C)C(=O)CCN3C(=O)C=CC3=O)c21` [compound 108]: 63.5 ng/mL (≈ 68.2 nM); `CCn1nc(C)cc1C(=O)Nc1nc2cc(C(N)=O)cc(OC)c2n1C/C=C/Cn1c(NC(=O)c2cccnn2)nc2cc(C(N)=O)cc(OCCCN(C)C(=O)CCN3C(=O)C=CC3=O)c21` [compound 96]: >10,000 ng/mL.
As for `CCn1nc(C)cc1C(=O)Nc1nc2cc(C(N)=O)cc(OC)c2n1C/C=C/Cn1c(NC(=O)c2cc(C)nn2C)nc2cc(C(N)=O)cc(OCCCN(C)C(=O)CCN3C(=O)C=CC3=O)c21` [compound 105], the “EC50, Lucia reporter signal” value is reported as 52.5 ng/mL (≈ 56.4 nM).
The same measure, in the same setting: next, `CCn1nc(C)cc1C(=O)Nc1nc2cc(C(=O)O)cc(OC)c2n1C/C=C/Cn1c(NC(=O)c2cc(C)nn2CC)nc2cc(C(=O)O)cc(OCCCN(C)C(=O)OCc3ccc(O[C@@H]4O[C@H](C(=O)O)[C@@H](O)[C@H](O)[C@H]4O)cc3NC(=O)CCNC(=O)CCN3C(=O)C=CC3=O)c21` [compound 69]: >10,000 ng/mL.
Still for that read-out and setting: next, `CCn1nc(C)cc1C(=O)Nc1nc2cc(C(N)=O)cc(OC)c2n1C/C=C/Cn1c(NC(=O)c2cc(C)nn2CC)nc2cc(C(N)=O)cc(OCCCN(C)C(=O)[C@H](CCC(=O)OC)NC(=O)CCN3C(=O)C=CC3=O)c21` [compound 123]: 1.6 ng/mL (≈ 1.47 nM).
Usually EC50 stands for the concentration needed to bring the measured effect to its halfway point. Turning to `COc1cc(C(N)=O)cc2nc(NC(=O)c3ccnnc3)n(C/C=C/Cn3c(NC(=O)c4cccnn4)nc4cc(C(N)=O)cc(O)c43)c12` [Compound 42], the EC50 (Homo sapiens, THP1-Dual, small molecules, 24 h, >10,000 nM = minimal activity up to 10 μM, read-out: EC50, Lucia reporter signal) is above 10 µM.
As to `CCn1nc(C)cc1C(=O)Nc1nc2cc(C(N)=O)cc(OC)c2n1C/C=C/Cn1c(NC(=O)c2cc(C)nn2CC)nc2cc(C(N)=O)cc(OCCCN(C)C(=O)[C@H](CC(=O)O)NC(=O)CCN3C(=O)C=CC3=O)c21` [Compound 17, (S,E)-4-((3-((5-carbamoyl-1-(4-(5-carbamoyl-2-(1-ethyl-3-methyl-1H-pyrazole-5-carboxamido)-7-methoxy-1H-benzo[d]imidazol-1-yl)but-2-en-1-yl)-2-(1-ethyl-3-methyl1H-pyrazole-5-carboxamido)-1H-benzo[d]imidazol-7-yl)oxy)propyl)(methyl)amino)-3-(3-(2,5-dioxo-2,5-dihydro-1H-pyrrol-1-yl)propanamido)-4-oxobutanoic acid], the “EC50, Lucia reporter signal” value came out at 2.2 ng/mL (≈ 2.08 nM).
Same read-out and setting: then `CCn1nc(C)cc1C(=O)Nc1nc2cc(C(N)=O)cc(OC)c2n1C/C=C/Cn1c(NC(=O)c2ccnnc2)nc2cc(C(N)=O)cc(OCCCN(C)C(=O)CCN3C(=O)C=CC3=O)c21` [compound 98], with >10,000 ng/mL.
On the same count and under the same terms, then `CCn1nc(C)cc1C(=O)Nc1nc2cc(S(=O)(=O)NC)ccc2n1C/C=C/Cn1c(NC(=O)c2cc(C)nn2CC)nc2cc(C(N)=O)cc(OCCCN(C)C(=O)CCN3C(=O)C=CC3=O)c21` [compound 128, (E)-7-(3-(3-(2,5-dioxo-2,5-dihydro-1H-pyrrol-1-yl)-N-methylpropanamido)propoxy)-2-(1-ethyl-3-methyl-H-pyrazole-5-carboxamido)-1-(4-(2-(1-ethyl-3-methyl-1H-pyrazole-5-carboxamido)-5-(N-methylsulfamoyl)-1H-benzo[d]imidazol-1-yl)but-2-en-1-yl)-1H-benzo[d]imidazole-5-carboxamide], with >10,000 ng/mL.
Take `CCn1nc(C)cc1C(=O)Nc1nc2cc(C(N)=O)cc(OC)c2n1C/C=C/Cn1c(NC(=O)c2cc(C)nn2CC)nc2cc(C(N)=O)cc(OCCC[N+](C)(C)Cc3ccc(O[C@@H]4O[C@H](C(=O)O)[C@@H](O)[C@H](O)[C@H]4O)cc3NC(=O)CCNC(=O)CCN3C(=O)C=CC3=O)c21.O=C([O-])C(F)(F)F` [compound 134]: the “EC50, Lucia reporter signal” value is given as 10.3 ng/mL.
Turning to `CCn1nc(C)cc1C(=O)Nc1nc2cc(C(N)=O)cc(OC)c2n1C/C=C/Cn1c(NC(=O)c2c(C)cnn2C)nc2cc(C(N)=O)cc(OCCCN(C)C(=O)CCN3C(=O)C=CC3=O)c21` [compound 110], the “EC50, Lucia reporter signal” value is reported as >10,000 ng/mL.
On the same count and under the same terms, next, `CCn1nc(C)cc1C(=O)Nc1nc2cc(C(N)=O)cc(OC)c2n1C/C=C/Cn1c(NC(=O)c2cc(C)nn2CC)nc2cc(C(N)=O)cc(OCCCN(C)C(=O)[C@H](CO)NC(=O)CCN3C(=O)C=CC3=O)c21` [Compound 24, (S,E)-1-(4-(5-carbamoyl-2-(1-ethyl-3-methyl-1H-pyrazole-5-carboxamido)-7-methoxy-1H-benzo[d]imidazol-1-yl)but-2-en-1-yl)-7-(3-(2-(3-(2,5-dioxo-2,5-dihydro-1H-pyrrol-1-yl)propanamido)-3-hydroxy-N-methylpropanamido)propoxy)-2-(1-ethyl-3-methyl-1H-pyrazole-5-carboxamido)-1H-benzo[d]imidazole-5-carboxamide]: 2.1 ng/mL (≈ 2.03 nM).
Consider `CCc1cc(C(=O)Nc2nc3cc(C(N)=O)cc(OCCCN(C)C(=O)CCN4C(=O)C=CC4=O)c3n2C/C=C/Cn2c(NC(=O)c3cc(C)nn3CC)nc3cc(C(N)=O)cc(OC)c32)n(C)n1` [compound 104], for which the “EC50, Lucia reporter signal” value is listed as >10,000 ng/mL.
As for `CCn1nc(C)cc1C(=O)Nc1nc2cc(S(N)(=O)=O)ccc2n1C/C=C/Cn1c(NC(=O)c2cc(C)nn2C)nc2cc(C(N)=O)cc(OCCCN(C)C(=O)CCN3C(=O)C=CC3=O)c21` [compound 148, (E)-2-(1,3-dimethyl-1H-pyrazole-5-carboxamido)-7-(3-(3-(2,5-dioxo-2,5-dihydro-1H-pyrrol-1-yl)-N-methylpropanamido)propoxy)-1-(4-(2-(1-ethyl-3-methyl-1H-pyrazole-5-carboxamido)-5-sulfamoyl-1H-benzo[d]imidazol-1-yl)but-2-en-1-yl)-1H-benzo[d]imidazole-5-carboxamide], the “EC50, Lucia reporter signal” value is >10,000 ng/mL.
Same read-out and setting: next, `CCn1nc(C)cc1C(=O)Nc1nc2cc(C(N)=O)cc(OC)c2n1C/C=C/Cn1c(NC(=O)c2cc(C)nn2CC)nc2cc(C(N)=O)cc(OCCCN(C)C(=O)[C@H](Cc3ccccc3)NC(=O)CCN3C(=O)C=CC3=O)c21` [compound 122]: 5.6 ng/mL (≈ 5.13 nM); `CCn1nc(C)cc1C(=O)Nc1nc2cc(C(N)=O)cc(OC)c2n1C/C=C/Cn1c(NC(=O)c2cc(C)nn2CC)nc2cc(C(N)=O)cc(OCCC3CN(C(=O)CCN4C(=O)C=CC4=O)C3)c21` [Compound 26, (E)-1-(4-(5-carbamoyl-2-(1-ethyl-3-methyl-1H-pyrazole-5-carboxamido)-7-methoxy-1H-benzo[d]imidazol-1-yl)but-2-en-1-yl)-7-(2-(1-(3-(2,5-dioxo-2,5-dihydro-1H-pyrrol-1-yl)propanoyl)azetidin-3-yl)ethoxy)-2-(1-ethyl-3-methyl-1H-pyrazole-5-carboxamido)-1H-benzo[d]imidazole-5-carboxamide]: 14.4 ng/mL (≈ 15 nM).

For the origin of these results see patent US20250255981A1, “IMMUNOMODULATORY ANTIBODY-DRUG CONJUGATES” (Seagen Inc., priority 2022, published 2025).
